The values below come from ChEMBL document CHEMBL1143705, “Cytotoxic dibromotyrosine-derived metabolites from the sponge Aplysina gerardogreeni” (2007).

Each structure is given as a SMILES string.

The GI50 is the concentration that inhibits growth by half. A low value points to more potent growth inhibition. What is called TGI is the concentration at which net growth stops. Low values mean more potent growth arrest, high ones less potent growth arrest.

What all share (type): functional
Holding throughout (settings): for CC50: read-out: LC50 (the source's name)

One experiment deals with HT-29. Put plainly: Cytotoxicity against human HT29 cells by SRB assay. On the technique in general: Sulforhodamine B stains cellular protein and so reports cell mass.
The test system of the next experiment is A549. Put plainly: Cytotoxicity against human A549 cells by SRB assay.
Another experiment has as its system MDA-MB-231. As to the kind of experiment: Cytotoxicity against human MDA-MB-231 cells by SRB assay.

On to `COC1=C(Br)[C@H](O)[C@@]2(C=C1Br)CC(C(=O)NCCCCCNC(=O)C1=NO[C@]3(C=C(Br)C(OC)(OC)[C@@H](Br)[C@@H]3O)C1)=NO2`, for which, in the experiment with HT-29, the concentration for 50% growth inhibition (GI50) worked out at 4.8 µM, the concentration for total growth inhibition (TGI) is greater than 10 µg/mL and the CC50 was greater than 10 µg/mL. In the experiment with A549, the GI50 is 7.1 µM, the TGI was greater than 10 µg/mL and the CC50 was greater than 10 µg/mL. In the experiment on MDA-MB-231, it took 4.2 µM to inhibit growth by half (GI50), the TGI worked out at 6 µM and the CC50 turned out to be 9.6 µM.
Regarding `COC1=C(Br)[C@H](O)[C@@]2(C=C1Br)CC(C(=O)NCCCCCNC(=O)C1=NO[C@]3(C=C(Br)C(=O)[C@@H]4O[C@@H]43)C1)=NO2` [APLYSINONE C], in the experiment with HT-29, the GI50 is 12.6 µM, the TGI is greater than 10 µg/mL and the CC50 was greater than 10 µg/mL. Moreover, in the experiment on A549, halving of growth (GI50) required 10.7 µM, the TGI is greater than 10 µg/mL and the CC50 is greater than 10 µg/mL. Also, in the experiment on MDA-MB-231, halving of growth (GI50) required 5.6 µM, the TGI was 5.8 µM and the CC50 came to 6.4 µM.
For `O=C(NCCCCCNC(=O)C1=NO[C@]2(C=C(Br)C(=O)[C@@H](Br)[C@@H]2O)C1)C1=NO[C@]2(C=C(Br)C(=O)[C@@H](Br)[C@@H]2O)C1` [APLYSINONE B], in the experiment on HT-29, growth was halved (GI50) at 1.5 µM, total growth inhibition (TGI) required 2.1 µM and the CC50 was determined as 3 µM. In addition, in the experiment with A549, growth was halved (GI50) at 2 µM, the TGI turned out to be 2.9 µM and the CC50 came out at 4.1 µM. Besides, in the experiment with MDA-MB-231, the GI50 was 1.6 µM, total growth inhibition (TGI) required 2.1 µM and the CC50 was found to be 3 µM.
Take `COC1=C(Br)[C@H](O)[C@@]2(C=C1Br)CC(C(=O)NCCCCCNC(=O)C1=NO[C@]3(C=C(Br)C(=O)[C@@H](Br)[C@@H]3O)C1)=NO2` [APLYSINONE A]: in the experiment with HT-29, the GI50 worked out at 2.8 µM, the TGI was determined as 4.8 µM and the CC50 is 9.1 µM. For the same compound, in the experiment with A549, halving of growth (GI50) required 4.5 µM, total growth inhibition (TGI) required 7.1 µM and the CC50 was greater than 10 µg/mL. Besides, in the experiment with MDA-MB-231, the GI50 is 3.3 µM, the TGI was determined as 5.4 µM and the CC50 stood at 8.2 µM.
As to `COC1=C(Br)[C@H](O)[C@@]2(C=C1Br)CC(C(=O)NCCCCNC(=O)C1=NO[C@]3(C=C(Br)C(=O)[C@H](Br)[C@@H]3O)C1)=NO2`, in the experiment with HT-29, halving of growth (GI50) required 3.4 µM, net growth stopped (TGI) at 4.9 µM and the CC50 amounted to 8.5 µM. In addition, in the experiment on A549, growth was halved (GI50) at 5.6 µM, the TGI is greater than 10 µg/mL and the CC50 is greater than 10 µg/mL. Moreover, in the experiment on MDA-MB-231, the GI50 turned out to be 2.9 µM, the TGI was 4.7 µM and the CC50 is 8 µM.
`COc1cccc2c1C(=O)c1c(O)c3c(c(O)c1C2=O)C[C@@](O)(C(=O)CO)C[C@@H]3O[C@H]1C[C@H](N)[C@H](O)[C@H](C)O1` [DOXORUBICIN]: the GI50 in the experiment on HT-29, in the experiment with A549 and with MDA-MB-231 was 0.1 µM in each case. In addition, the results for the TGI in the experiment with HT-29, in the experiment with A549 and in the experiment on MDA-MB-231 were 0.3 µM, 0.2 µM and 0.3 µM, respectively. The CC50 was 0.4 µM with HT-29, 1 µM with A549 and 1.4 µM in the experiment on MDA-MB-231.
For the compound `COC1=C(Br)[C@H](O)[C@@]2(C=C1Br)CC(C(=O)NCCCCNC(=O)C1=NO[C@]3(C=C(Br)C(OC)=C(Br)[C@@H]3O)C1)=NO2` [AEROTHIONIN], in the experiment with HT-29, the GI50 was greater than 10 µg/mL, the TGI is greater than 10 µg/mL and the CC50 was greater than 10 µg/mL. In addition, in the experiment on A549, the GI50 is greater than 10 µg/mL, the TGI was greater than 10 µg/mL and the CC50 is greater than 10 µg/mL. In addition, in the experiment on MDA-MB-231, the GI50 was greater than 10 µg/mL, the TGI is greater than 10 µg/mL and the CC50 is greater than 10 µg/mL.
For the compound `COC1=C(Br)[C@H](O)[C@@]2(C=C1Br)CC(C(=O)NCCCCCNC(=O)C1=NO[C@]3(C=C(Br)C(=O)[C@H](Br)[C@@H]3O)C1)=NO2`, the GI50 worked out at 4.8 µM in the experiment with HT-29, 5.4 µM in the experiment on A549 and 3.5 µM with MDA-MB-231. The TGI was 5 µM in the experiment with HT-29, 8.7 µM in the experiment on A549 and 4.9 µM in the experiment on MDA-MB-231. The CC50 with HT-29 was found to be 5.4 µM; with A549 it was 11.2 µM; in the experiment with MDA-MB-231, 6.7 µM.
For `COC1=C(Br)[C@H](O)[C@@]2(C=C1Br)CC(C(=O)NCCCCCNC(=O)C1=NO[C@]3(C=C(Br)C(OC)=C(Br)[C@@H]3O)C1)=NO2` [HOMOAEROTHIONIN], in the experiment with HT-29, the GI50 was greater than 10 µg/mL, the TGI is greater than 10 µg/mL and the CC50 was greater than 10 µg/mL. Besides, in the experiment on A549, the GI50 is greater than 10 µg/mL, the TGI was greater than 10 µg/mL and the CC50 is greater than 10 µg/mL. Besides, in the experiment with MDA-MB-231, the GI50 is greater than 10 µg/mL, the TGI was greater than 10 µg/mL and the CC50 is greater than 10 µg/mL.
With `COC1=C(Br)[C@H](O)[C@@]2(C=C1Br)CC(C(=O)NCCCCNC(=O)C1=NO[C@]3(C=C(Br)C(=O)[C@@H](Br)[C@@H]3O)C1)=NO2` [APLYSINONE D], the 50% growth inhibitory concentration (GI50) with HT-29 worked out at 4.1 µM; in the experiment with A549 it was 5.7 µM; in the experiment with MDA-MB-231 it was 3.5 µM. Besides, the TGI in the experiment on HT-29 is 5.2 µM; in the experiment with A549, greater than 10 µg/mL; with MDA-MB-231, 5 µM. For the same compound, the CC50 in the experiment with HT-29 was 11.3 µM; in the experiment with A549, greater than 10 µg/mL; in the experiment on MDA-MB-231, 7.6 µM.
On to `O=C(NCCCCCNC(=O)C1=NO[C@]2(C=C(Br)C(=O)[C@H](Br)[C@@H]2O)C1)C1=NO[C@]2(C=C(Br)C(=O)[C@H](Br)[C@@H]2O)C1`, for which, in the experiment with HT-29, halving of growth (GI50) required 1.6 µM, net growth stopped (TGI) at 2.5 µM and the CC50 came out at 3.7 µM. In addition, in the experiment with A549, halving of growth (GI50) required 2.4 µM, net growth stopped (TGI) at 3.5 µM and the CC50 came to 5.5 µM. In addition, in the experiment with MDA-MB-231, the GI50 was 1.7 µM, the TGI was found to be 2.4 µM and the CC50 is 3.5 µM.
As to `COC1(OC)C(Br)=C[C@@]2(CC(C(=O)NCCCCCNC(=O)C3=NO[C@]4(C=C(Br)C(OC)(OC)[C@@H](Br)[C@@H]4O)C3)=NO2)[C@@H](O)[C@@H]1Br`, in the experiment with HT-29, the GI50 is greater than 10 µg/mL, the TGI was greater than 10 µg/mL and the CC50 was greater than 10 µg/mL. In the experiment with A549, the GI50 was greater than 10 µg/mL, the TGI was greater than 10 µg/mL and the CC50 is greater than 10 µg/mL. In addition, in the experiment on MDA-MB-231, the GI50 is greater than 10 µg/mL, the TGI was greater than 10 µg/mL and the CC50 was greater than 10 µg/mL.
